According to patent US12454530B2, “Amido cyclohexane acid derivatives as LPA receptor inhibitors” (CHIESI FARMACEUTICI S.P.A., priority 2020, dated 2025):

What was measured:
BSEP = BSEP (Homo sapiens (Human), UniProt O95342); test: BSEP inhibition: biliary clearance of Taurocolic Acid in sandwich-cultured human hepatocytes; format: in vitro ADME; details: sandwich-cultured cryopreserved human hepatocytes, probe Taurocolic Acid (TCA); 50 μM test compound, 10 μM TCA, human hepatocytes sandwich configuration
Procedure, shortened: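 Cryopreserved human hepatocytes were sandwich-cultured between collagen layers for 5 days, then incubated for 10 min at 37 °C in HBSS+ with 10 μM taurocholic acid, with or without 50 μM test compound. Bile content was released with Ca2+/Mg2+-free HBSS and quantified by HPLC-MS/MS. Inhibition is the percent reduction in TCA biliary clearance.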

[1] = Permeability on Caco-2 cells monolayers; format: in vitro ADME; details: human, with Elacridar 10 µM (PgP inhibitor), Papp A>B with PgP inhibitor Elacridar, 10 μM compound, read-out: Passive Permeability
Method: Even more advantageously, the compounds of formula (I) of the present invention are also endowed with a good permeability profile that, in its turn, can ensure a suitable bioavailability for an oral administration. The permeability was assessed in human Caco 2 cell line, an in vitro model that mimic human gastrointestinal barrier and so useful to predic oral absorption.
The permeability of the compounds of the present invention was evaluated performing the assay on Caco-2 cells monolayers (human colon adenocarcinoma immortalized cell) by measuring the transport of compound (absorption and secretion) in both directions: apical to basolateral direction (A>B) and basolateral to apical (B>A) with and without PgP inhibitor (Elacridar).
The cells, purched from ReadyCell in 96 well format (Cod. KRECE-CCR50), were cultured by the supplier for 21 day on transwell supports in DMEM 1 g/L glucose culture medium supplemented with Fetal Bovin Sierum (10%), Glutamine 200 mM (1%) and Penicillin 10000 U/ml-10 mg/ml Streptomycin (1%).
On day 21 of colture, cell monolayers integrity was verified by measuring the trans-epithelial electric resistance (TEER) using the EVOM equipment (Endohm, WPI, Germany) and studying the apparent permeability (Papp) of reference compounds (Sulpiride and Metoprolol). Furthermore, as a control, the Talinolol 10 uM (Pgp efflux substrate) with and without Elacridar in both directions was used.
The sample solution was prepared dissolving test compound in DMSO at the concentration of 10 mM and then diluted in the Assay Buffer (Hank's Balance Salt Solution) warmed at 37° C. before use, to give the 10 μM Compound working solution with and without 10 μM Elacridar. These working solutions were added to donor compartment (apical for A>B direction and basolateral for B>A direction) and Assay Buffer (Hank's Balance Salt Solution) to the receiver compartment (basolateral for A>B direction and apical for B>A direction). The plate was incubated at 37° C. for 120 min, all incubation were conducted in triplicates. At the end of incubation, samples from donor and receiver compartments were collected for HPLC-MS/MS analyses.
The permeability coefficients (Papp) in both directions: apical to basolateral (A>B) and basolateral to apical (B>A) with and without PgP inhibitor (Elacridar) was calculated in nm/sec, using the following equation:
[formula] • where: • Cr=measured concentration in the receiver well at the time t (expressed as IS ratio) • Vr=volume of the receiver well (ml) • t=time (sec) • A=membrane surface area (cm^2) • C0=initial donor concentration • Passive Papp is considered Papp A>B with PgP inhibitor Elacridar.

[2] = target: human recombinant LPA1 expressed in CHO cells (Homo sapiens (Human), UniProt Q92633); test: LPA1 antagonist FLIPR calcium assay in CHO-hLPA1 cells; format: cell-based; details: range of activity; CHO-hLPA1, LPA EC80, Ca2+ mobilization; read-out: LPA1 IC50
Procedure, shortened: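 CHO cells expressing human LPA1 loaded with Cal-520 AM (5 μM, with 2.5 mM probenecid) 30 min at 37 °C. Baseline-subtracted peak fluorescence on FLIPR converted to % inhibition; pIC50 from four-parameter logistic fit.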

Sequence of human recombinant LPA1 expressed in CHO cells (Q92633 whole entry): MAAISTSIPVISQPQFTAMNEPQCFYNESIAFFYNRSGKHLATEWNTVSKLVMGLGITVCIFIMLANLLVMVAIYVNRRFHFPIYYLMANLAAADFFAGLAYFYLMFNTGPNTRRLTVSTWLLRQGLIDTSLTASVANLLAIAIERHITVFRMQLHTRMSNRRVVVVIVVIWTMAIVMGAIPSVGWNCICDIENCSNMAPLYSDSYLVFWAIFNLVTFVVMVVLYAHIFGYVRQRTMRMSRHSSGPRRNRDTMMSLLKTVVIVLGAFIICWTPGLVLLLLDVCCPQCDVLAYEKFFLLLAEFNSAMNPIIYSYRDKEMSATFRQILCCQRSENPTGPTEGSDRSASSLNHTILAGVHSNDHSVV
Sequence of BSEP (O95342 whole entry): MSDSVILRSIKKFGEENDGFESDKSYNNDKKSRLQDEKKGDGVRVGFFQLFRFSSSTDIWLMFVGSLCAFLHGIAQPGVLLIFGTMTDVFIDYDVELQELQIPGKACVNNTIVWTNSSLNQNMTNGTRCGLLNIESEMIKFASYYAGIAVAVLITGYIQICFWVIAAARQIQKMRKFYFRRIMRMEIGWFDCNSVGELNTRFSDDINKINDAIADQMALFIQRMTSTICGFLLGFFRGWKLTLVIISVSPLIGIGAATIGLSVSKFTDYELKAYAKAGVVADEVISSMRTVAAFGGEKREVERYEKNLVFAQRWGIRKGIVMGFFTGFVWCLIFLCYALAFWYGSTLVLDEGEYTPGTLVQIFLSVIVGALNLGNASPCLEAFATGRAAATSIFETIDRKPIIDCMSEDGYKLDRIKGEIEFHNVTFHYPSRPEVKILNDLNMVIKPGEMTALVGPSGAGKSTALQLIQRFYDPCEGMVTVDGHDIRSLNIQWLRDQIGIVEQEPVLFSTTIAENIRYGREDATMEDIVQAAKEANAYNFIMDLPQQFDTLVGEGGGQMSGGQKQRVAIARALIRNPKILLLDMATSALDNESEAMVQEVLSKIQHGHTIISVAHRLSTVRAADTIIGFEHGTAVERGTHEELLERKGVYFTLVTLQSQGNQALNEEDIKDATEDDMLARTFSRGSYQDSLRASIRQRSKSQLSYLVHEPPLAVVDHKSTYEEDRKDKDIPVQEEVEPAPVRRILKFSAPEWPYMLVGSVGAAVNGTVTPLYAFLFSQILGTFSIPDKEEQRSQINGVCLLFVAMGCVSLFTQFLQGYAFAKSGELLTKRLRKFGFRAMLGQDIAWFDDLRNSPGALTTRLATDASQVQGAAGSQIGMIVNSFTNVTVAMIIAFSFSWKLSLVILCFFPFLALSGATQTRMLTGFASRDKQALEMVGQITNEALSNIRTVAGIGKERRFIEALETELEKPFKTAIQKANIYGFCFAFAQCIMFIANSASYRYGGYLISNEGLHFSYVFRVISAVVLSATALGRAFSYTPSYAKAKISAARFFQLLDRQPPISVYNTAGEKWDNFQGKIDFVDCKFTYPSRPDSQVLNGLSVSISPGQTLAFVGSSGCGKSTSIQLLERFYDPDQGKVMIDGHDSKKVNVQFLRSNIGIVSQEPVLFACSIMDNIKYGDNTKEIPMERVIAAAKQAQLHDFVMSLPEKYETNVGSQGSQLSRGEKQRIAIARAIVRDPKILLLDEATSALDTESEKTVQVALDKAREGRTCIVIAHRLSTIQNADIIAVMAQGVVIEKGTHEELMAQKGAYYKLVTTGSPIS

Structure (SMILES) | inhibition at 10 min, 50 μM (BSEP) [%] | Papp at 120 min, 10 µM [1] [×10⁻⁶ cm/s] | IC50 [2] [nM]
Cc1nc(-c2onc(C)c2NC(=O)O[C@H](C)C2CCCC2)ccc1NC(=O)[C@H]1CCCC[C@@H]1C(=O)O [Example 26, (1S,2S)-2-((6-(4-((((R)-1-cyclopentylethoxy)carbonyl)amino)-3-methylisoxazol-5-y1)-2-methylpyridin-3-yl)carbamoy1)cyclohexane-1-carboxylic acid] | ≤ 50 | ≥ 1.5 | < 50
Cc1noc(-c2ccc(NC(=O)[C@H]3CCCC[C@@H]3C(=O)O)cn2)c1NC(=O)O[C@H](C)c1ccccc1F [Example 34, (1S,2S)-2-((6-(4-((((R)-1-(2-fluorophenyl)ethoxy)carbonyl)amino)-3-methylisoxazol-5-yl)pyridin-3-yl)carbamoyl)cyclohexane-1-carboxylic acid] | ≤ 50 | ≥ 1.5 | < 50
Cc1noc(-c2ccc(NC(=O)[C@H]3CCCC[C@@H]3C(=O)O)cn2)c1NC(=O)OCc1ccccc1Cl [Example 35, (1S,2S)-2-((6-(4-((((2-chlorobenzyl)oxy)carbonyl)amino)-3-methylisoxazol-5-yl)pyridin-3-yl)carbamoyl)cyclohexane-1-carboxylic acid] | ≤ 50 | ≥ 1.5 | 50 to 250
Cc1noc(-c2ccc(NC(=O)[C@H]3CCCC[C@@H]3C(=O)O)cn2)c1NC(=O)O[C@H](C)c1ccccc1C(F)(F)F [Example 36, (1S,2S)-2-((6-(3-methyl-4-((((R)-1-(2-(trifluoromethyl)phenyl)ethoxy)carbonyl)amino)isoxazol-5-yl)pyridin-3-yl)carbamoyl)cyclohexane-1-carboxylic acid] | ≤ 50 | ≥ 1.5 | 50 to 250
COc1ccccc1[C@@H](C)OC(=O)Nc1c(C)noc1-c1ccc(NC(=O)[C@H]2CCCC[C@@H]2C(=O)O)c(C)n1 [Example 38, (1S,2S)-2-((6-(4-((((R)-1-(2-methoxyphenyl)ethoxy)carbonyl)amino)-3-methylisoxazol-5-yl)-2-methylpyridin-3-yl)carbamoyl)cyclohexane-1-carboxylic acid] | ≤ 50 | ≥ 1.5 | 50 to 250
Cc1nc(-c2nnn(C)c2NC(=O)O[C@H](C)C2CCCC2)ccc1NC(=O)[C@H]1CCCC[C@@H]1C(=O)O [Example 46, (1S,2S)-2-((6-(5-((((R)-1-cyclopentylethoxy)carbonyl)amino)-1-methyl-1H-1,2,3-triazol-4-yl)-2-methylpyridin-3-yl)carbamoyl)cyclohexane-1-carboxylic acid] | ≤ 50 | ≥ 1.5 | 50 to 250
Cc1nc(-c2cnn(C)c2NC(=O)O[C@H](C)c2ccccc2F)ccc1NC(=O)[C@H]1CCCC[C@@H]1C(=O)O [Example 50, (1S,2S)-2-((6-(5-((((R)-1-(2-fluorophenyl)ethoxy)carbonyl)amino)-1-methyl-1H-pyrazol-4-yl)-2-methylpyridin-3-yl)carbamoyl)cyclohexane-1-carboxylic acid] | ≤ 50 | ≥ 1.5 | 50 to 250
